Reference: patent US8178678B2, “Bis-quaternary ammonium salts and methods for modulating neuronal nicotinic acetylcholine receptors” (University of Kentucky Research Foundation, priority 2006, dated 2012)

What was measured:
[1] = target: T1, Rat Striatal Nicotinic Receptors ([^3H]NIC binding sites; α4β2) (Rattus norvegicus, UniProt P09483+P12390); test: Inhibition of [^3H]NIC binding; conditions: 100 nM analog, 3 nM [^3H]NIC, nonspecific 10 μM cytisine, rat brain membranes; for inhibition at 0.1 µM: 1 h
T1 construct: Whole brain, excluding cortex and cerebellum, was homogenized in 20 vol of ice-cold buffer; from tissue; host or cells: rat brain membranes (whole brain excluding cortex and cerebellum)
T1 sequence (P09483 31-630): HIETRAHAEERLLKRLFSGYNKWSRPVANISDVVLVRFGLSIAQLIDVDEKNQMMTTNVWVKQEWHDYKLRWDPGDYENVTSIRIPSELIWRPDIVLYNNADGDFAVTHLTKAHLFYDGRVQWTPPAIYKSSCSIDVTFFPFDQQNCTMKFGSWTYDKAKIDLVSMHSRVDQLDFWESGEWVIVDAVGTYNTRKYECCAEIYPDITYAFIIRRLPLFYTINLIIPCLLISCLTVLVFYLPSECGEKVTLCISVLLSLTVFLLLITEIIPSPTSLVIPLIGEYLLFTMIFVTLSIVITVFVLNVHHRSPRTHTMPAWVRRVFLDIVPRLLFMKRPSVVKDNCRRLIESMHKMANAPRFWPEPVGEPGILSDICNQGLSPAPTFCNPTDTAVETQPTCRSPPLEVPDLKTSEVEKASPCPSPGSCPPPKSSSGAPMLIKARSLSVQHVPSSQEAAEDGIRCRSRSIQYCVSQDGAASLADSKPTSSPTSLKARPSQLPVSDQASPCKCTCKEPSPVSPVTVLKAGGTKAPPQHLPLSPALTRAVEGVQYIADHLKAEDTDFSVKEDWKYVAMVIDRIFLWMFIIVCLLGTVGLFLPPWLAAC
T1 sequence (P12390 25-500): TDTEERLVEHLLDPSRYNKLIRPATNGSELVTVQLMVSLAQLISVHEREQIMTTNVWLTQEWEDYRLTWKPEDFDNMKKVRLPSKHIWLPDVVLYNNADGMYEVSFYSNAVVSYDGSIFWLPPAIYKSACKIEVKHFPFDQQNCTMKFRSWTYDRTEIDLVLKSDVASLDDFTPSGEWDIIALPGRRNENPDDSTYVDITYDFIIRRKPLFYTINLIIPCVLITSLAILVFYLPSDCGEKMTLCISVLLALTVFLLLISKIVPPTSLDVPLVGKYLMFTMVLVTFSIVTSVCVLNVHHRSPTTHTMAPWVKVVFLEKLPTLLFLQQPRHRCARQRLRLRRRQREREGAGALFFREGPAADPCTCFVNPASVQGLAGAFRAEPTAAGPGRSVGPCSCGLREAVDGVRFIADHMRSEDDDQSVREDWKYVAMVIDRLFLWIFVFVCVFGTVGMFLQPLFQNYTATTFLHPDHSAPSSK
Procedure: (§1) Homogenate was centrifuged (25,000 g, 15 min, 4° C). Pellets were resuspended in 20 vol buffer and incubated at 37° C., for 10 min, cooled to 4° C. and centrifuged (25,000 g, 15 min, 4° C.). Pellets were resuspended and centrifuged using the same conditions. […] Upon use, final pellets were resuspended in 20 vol assay buffer. Samples (250 μl) contained 100-140 μg of membrane protein, 3 nM [^3H]-S-nicotine or 3 nM [^3H]-methyllycaconitine (MLA), and bis-quaternary ammonium analog (100 nM) in assay buffer containing 50 mM Tris. Control was in the absence of analog. In [^3H]-S-nicotine and [^3H]-methyllycaconitine binding assays, nonspecific binding was determined in the presence of 10 μM cytisine and 10 μM S-nicotine, respectively. Incubations proceeded for 60 min at room temperature using 96-well plates and were terminated by harvesting on Unifilter-96 GF/B filter plates presoaked in 0.5% polyethylenimine, using a Packard FilterMate harvester. After washing 5 times with 350 μl ice-cold assay buffer, filter plates were dried (60 min, 4° C.), bottom-sealed, and filled with Packard's MicroScint 20 cocktail (40 μl/well). After 60 min, filter plates were top-sealed, and radioactivity determined using a Packard TopCount. Protein concentrations were determined using the Bradford dye-binding procedure bovine serum albumin as the standard.
Specific binding in the [^3H]NIC binding assay is calculated as the difference between the total binding of 3 nM [^3H]NIC and nonspecific binding in the presence of 10 μM cold cytisine. […] Analog-induced inhibition of S-nicotine-evoked [^3H]DA release is calculated as a percent of that in the absence of the bis-quaternary ammonium analog.

[2] = tested on: nicotinic receptors mediating S-nicotine-evoked [^3H]DA release in rat striatal slices; test: Inhibition of S-nicotine-evoked [^3H]dopamine release from superfused rat striatal slices; type: cell-based; conditions: 100 nM analog superfused 60 min before NIC 10 μM, rat striatal slices; for inhibition at 0.1 µM: 1 h, read-out: [^3H]DA release, % inhibition of S-nicotine-evoked release
Procedure: Rat striatal slices (500 μm thickness, 6-8 mg wet weight) were incubated for 30 minutes in Krebs buffer (118 mM NaCl, 4.7 mM KCl, 1.2 mM MgCl2, 1.0 mM NaH2PO4, 1.3 mM CaCl2, 11.1 mM glucose, 25 mM NaHCO3, 0.11 mM L-ascorbic acid, and 0.004 mM disodium EDTA; pH 7.4, and saturated with 95% O2/5% CO2) in a metabolic shaker at 34° C. Slices were rinsed with 15 mL of fresh buffer and incubated for an additional 30 minutes in fresh buffer containing 0.1 μM [^3H]dopamine (DA; 6 slices/3 mL). Subsequently, slices were rinsed with 15 mL of fresh buffer and transferred to a glass superfusion chamber. Slices were superfused (1.0 mL/min) for 60 minutes with Krebs buffer containing nomifensine (10 μM) and pargyline (10 μM) and maintained at 34° C., pH 7.4, with continual aeration (95% O2/5% CO2). Two five minute samples (5 mL each) were collected to determine basal outflow of [^3H]DA. The bis-quaternary ammonium analogs were added to the superfusion buffer after the collection of the second sample and remained in the buffer until 12 consecutive five minute samples were collected. Subsequently, S-nicotine (NIC; 10 μM) was added to the buffer and an additional 12 consecutive five minute samples were collected. At the end of the experiment, each slice was solubilized and the [^3H] content of the tissue determined.
Radioactivity in the superfusate and tissue samples was determined by liquid scintillation spectroscopy. Fractional release for tritium collected in each sample was divided by the total tritium present in the tissue at the time of sample collection and was expressed as a percentage of total tritium. Basal [^3H]outflow was calculated from the average of the tritium collected in the two five minute samples just before addition of the quaternary analog. The sum of the increase in collected tritium resulting from either exposure to the test compound or exposure to S-nicotine in the absence and presence of the test compound equaled total [^3H]overflow. [^3H]Overflow was calculated by subtracting the [^3H]outflow during an equivalent period of prestimulation from the values in samples collected during and after drug exposure. Inasmuch as the radiolabelled compounds were not separated and identified, the tritium collected in superfusate is referred to as either [3H]outflow or [^3H]overflow, rather than as [^3H]DA. [^3H]Overflow primarily represents [^3H]DA in the presence of nomifensine and pargyline in the superfusion buffer.
The bis-quaternary ammonium analogs were also evaluated for their ability to inhibit NIC evoked [^3H]DA release. In these experiments, the striatal slices were superfused for 60 minutes with 100 nM concentration of the quaternary analogs prior to NIC (10 μM) exposure. Antagonist activity was evaluated by comparing the NIC-evoked [^3 H]overflow in the absence and presence of the analogs. The relative order of potency of the quaternary analogs for inhibition of NIC-evoked [^3H]DA release from rat striatal slices is illustrated in Table 1.
^aData are % inhibition at 100 nM concentration of the bis-quaternary ammonium analogs for at least 1-3 independent experiments; with the exception of when a Ki value in μM is provided, in which case a full concentration effect was evaluated. Specific binding in the [^3H]NIC binding assay is calculated as the difference between the total binding of 3 nM [^3H]NIC and nonspecific binding in the presence of 10 μM cold cytisine. Specific binding for the [^3H]MLA binding assay is calculated as the difference between the total binding of […] [^3H]MLA to the receptors alone and its nonspecific binding in the presence of […] cold S-nicotine. Analog-induced inhibition of S-nicotine-evoked [^3H]DA release is calculated as a percent of that in the absence of the bis-quaternary ammonium analog.

[3] = target: T2, Rat Striatal Nicotinic Receptors ([^3H]MLA binding sites; α7) (Rattus norvegicus, UniProt Q05941); test: Inhibition of [^3H]MLA (methyllycaconitine) binding; conditions: 100 nM analog, [^3H]MLA, nonspecific S-nicotine, rat brain membranes; for inhibition at 0.1 µM: read-out: [^3H]MLA binding, % inhibition
T2 construct: Whole brain, excluding cortex and cerebellum, was homogenized in 20 vol of ice-cold buffer; from tissue; host or cells: rat brain membranes (whole brain excluding cortex and cerebellum)
T2 sequence (Q05941 23-502): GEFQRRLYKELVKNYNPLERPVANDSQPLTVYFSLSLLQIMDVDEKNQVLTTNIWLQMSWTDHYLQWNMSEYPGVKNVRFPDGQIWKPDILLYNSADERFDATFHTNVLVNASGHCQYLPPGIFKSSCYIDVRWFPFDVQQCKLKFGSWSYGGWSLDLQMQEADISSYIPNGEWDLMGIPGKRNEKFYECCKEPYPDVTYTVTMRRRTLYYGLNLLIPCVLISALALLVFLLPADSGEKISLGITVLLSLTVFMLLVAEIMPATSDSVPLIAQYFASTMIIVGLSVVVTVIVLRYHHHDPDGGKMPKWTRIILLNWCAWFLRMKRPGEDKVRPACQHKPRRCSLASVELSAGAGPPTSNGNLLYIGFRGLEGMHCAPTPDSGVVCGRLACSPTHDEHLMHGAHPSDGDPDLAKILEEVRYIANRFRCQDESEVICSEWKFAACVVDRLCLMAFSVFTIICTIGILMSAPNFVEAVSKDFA
Procedure: as §1, with “standard. […]” for “standard.”

Compound	inhibition at 0.1 µM [1]	inhibition at 0.1 µM [2]	inhibition at 0.1 µM [3]	[^3H]NIC binding, % inhibition [1]	[^3H]DA release, % inhibition of S-nicotine-evoked release [2]	[^3H]MLA binding, % inhibition [3]
Cc1cc[n+](CCCCCc2ccccc2CCCCC[n+]2ccc(C)c(C)c2)cc1C [Example 38, 1,2-bis-[5-(3,4-dimethyl-pyridinium)-pentyl]-benzene dibromide]	3%	10%	4.6%	–	–	–
CN1CCC[C@@H]1c1ccc[n+](CCCC#Cc2ccccc2C#CCCC[n+]2cccc([C@@H]3CCCN3C)c2)c1 [Example 31, 1,2-bis-[5-(2′-S-nicotinium-pent-1-ynyl)]benzene dibromide]	72%	35%	9.2%	–	–	–
CN1CCC[C@@H]1c1ccc[n+](CCCC#Cc2cccc(C#CCCC[n+]3cccc([C@H]4CCCN4C)c3)c2)c1 [Example 56, 1,3-bis-[5(2′-S-nicotinium-pent-1-ynyl)]benzene dibromide]	3.1%	18%	2.6%	–	–	–
N,N′-[(1,1′-biphenyl)-4,4′-di-(3-propanyl)]-bis-[3-(2′-S-1-methyl-pyrrolidin-2-yl)-pyridinium]dibromide [Example 70]	–	–	–	12%	8%	11%
Cc1cc[n+](CCCCCc2ccccc2CCCCC[n+]2ccc(C)cc2)cc1 [Example 36, 1,2-bis-[5-(4-methyl-pyridinium)-pentyl]-benzene dibromide]	0%	11%	3.1%	–	–	–
C(#Cc1ccccc1C#CCCC[n+]1ccc2ccccc2c1)CCC[n+]1ccc2ccccc2c1 [Example 30, 1,2-bis-(5-isoquinolinium-pent-1-ynyl)-benzene dibromide]	1.6%	24%	1.1%	–	–	–
Cc1cccc[n+]1CCCC#Cc1cccc(C#CCCC[n+]2ccccc2C)c1 [Example 48, 1,3-bis-[5-(2-methyl-pyridinium)-pent-1-ynyl]-benzene dibromide]	1.9%	35%	0%	–	–	–
Cc1cc(C)c[n+](CCCCCc2ccccc2CCCCC[n+]2cc(C)cc(C)c2)c1 [Example 39, 1,2-bis-[5-(3,5-dimethyl-pyridinium)-pentyl]-benzene dibromide]	0.7%	47%	0%	–	–	–
Cc1cc[n+](CCCC#Cc2ccccc2C#CCCC[n+]2ccc(C)cc2C)c(C)c1 [Example 26, 1,2-bis-[5-(2,4-dimethyl-pyridinium)-pent-1-ynyl]-benzene dibromide]	0%	18%	0%	–	–	–
Cc1ccc[n+](CCCCCc2ccccc2CCCCC[n+]2cccc(C)c2)c1 [Example 35, 1,2-bis-[5-(3-methyl-pyridinium)-pentyl]-benzene dibromide]	0%	25%	5.4%	–	–	–
Cc1ccc[n+](CCCc2ccc(-c3ccc(CCC[n+]4cccc(C)c4)cc3)cc2)c1 [Example 78, N,N′-[(1,1′-biphenyl)-4,4′-di-(3-propanyl)]-bis-(3-methylpyridinium)dibromide]	0%	44%	5.5%	–	–	–
CN1CCCC1c1ccc[n+](CCCCCc2ccccc2CCCCC[n+]2cccc([C@@H]3CCCN3C)c2)c1 (stereo partly drawn) [Example 42, 1,2-bis-[5-(2′-S-nicotinium-pentyl)]benzene dibromide]	71%	59%	11%	–	–	–
Cc1cc[n+](CCCCCc2cccc(CCCCC[n+]3ccc(C)c(C)c3)c2)cc1C [Example 66, 1,3-bis-[5-(3,4dimethyl-pyridinium)-pentyl]-benzene dibromide]	10.5%	35%	7%	–	–	–
Cc1cccc[n+]1CCCCCc1ccccc1CCCCC[n+]1ccccc1C [Example 34, 1,2-bis-[5-(2-methyl-pyridinium)-pentyl]-benzene dibromide]	0%	8%	7.6%	–	–	–
Cc1cc(C)c[n+](CCCC#Cc2ccccc2C#CCCC[n+]2cc(C)cc(C)c2)c1 [Example 28, 1,2-bis-[5-(3,5-dimethyl-pyridinium)-pent-1-ynyl]-benzene dibromide]	1.3%	19%	5%	–	–	–
Cc1cccc[n+]1CCCC#Cc1ccccc1C#CCCC[n+]1ccccc1C [Example 23, 1,2-bis-[5-(2-methyl-pyridinium)-pent-1-ynyl]-benzene dibromide]	2.1%	25%	1.2%	–	–	–
c1cc(CCCCC[n+]2cccc3ccccc32)cc(CCCCC[n+]2cccc3ccccc32)c1 [Example 68, 1,3-bis-(5-quinolinium-pentyl)-benzene dibromide]	8.3%	16%	14%	–	–	–
